The record followed here is doi:10.1101/2025.06.12.659322v2 (biorxiv, 2025).

This assay addresses Rv0183 (mtbMGL) (Mycobacterium tuberculosis, UniProt O07427). Nature of the assay: biochemical.

Sequence of Rv0183 (mtbMGL) (O07427 whole entry): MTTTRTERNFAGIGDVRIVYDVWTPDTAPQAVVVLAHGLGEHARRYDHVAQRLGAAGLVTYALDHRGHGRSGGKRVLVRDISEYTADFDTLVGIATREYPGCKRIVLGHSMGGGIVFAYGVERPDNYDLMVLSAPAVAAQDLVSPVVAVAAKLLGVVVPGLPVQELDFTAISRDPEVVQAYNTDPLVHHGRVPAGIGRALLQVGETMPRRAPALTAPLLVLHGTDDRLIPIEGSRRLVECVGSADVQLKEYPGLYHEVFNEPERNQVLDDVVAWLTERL

As for `O=C(c1ccc(-c2cnc(-c3cccc(OC(F)(F)F)c3)o2)cc1)N1CC[C@@H](O)C1` [ELF8, (R)-(3-hydroxypyrrolidin-1-yl)(4-(2-(3-(trifluoromethoxy)phenyl)oxazol-5-yl)phenyl)methanone], 4.26 µM corresponded to half-maximal inhibition (IC50).

As for `COc1ccc(-n2nc(C(=O)N3CC[C@@H](O)C3)cc2-c2ccccc2Cl)cc1` [ELF1, (R)-(5-(2-chlorophenyl)-1-(4-methoxyphenyl)-1H-pyrazol-3-yl)(3-hydroxypyrrolidin-1-yl)methanone], half-maximal inhibition (IC50) was put at 9.55 µM. Consider `COc1ccc(Nc2cc(-n3cc(C(=O)N4CC[C@@H](O)C4)cn3)ncn2)cc1` [ELF5, (R)-(3-hydroxypyrrolidin-1-yl)(1-(6-((4-methoxyphenyl)amino)pyrimidin-4-yl)-1H-pyrazol-4-yl)methanone], for which the IC50 (usually the concentration at which inhibition is half-maximal) was found to be 8.51 µM.
